Earlier results, collected in patent publication US20210244680A1, “WEARABLE LIPOSOMAL CANNABIDIOL TRANSDERMAL PATCH” (priority 2020, published 2021).

Tested on: rats with arthritis
Conditions: topical gel containing CBD applied to rats with arthritis for 4 days

Q: Which “inflammation and signs of pain” value does the source give for `C=C(C)[C@@H]1CCC(C)=C[C@H]1c1c(O)cc(CCCCC)cc1O` [CBD, Cannabidiol] here?
A: significant drop in inflammation and signs of pain

Q: What about the side effects of the same compound?
A: without additional side effects
